Legend:
[1] = test system: human liver cells (HepG2-AD13); assay: Direct contact cytotoxicity, Luciferase Assay System, HepG2-AD13 cells; format: cell-based; settings: 6 h
Procedure: Immortalized human liver cells (hereafter HepG2-AD13) were obtained from collaborators at Aichi Gakuin University, Japan. The cells were maintained (37° C., 5% CO2) in Dulbecco's Modified Eagle's medium supplemented with 10% fetal bovine serum. For experiments, cells were obtained from a subconfluent stock culture.
Direct contact cytotoxicity testing was conducted by exposing cells to two-fold serial dilutions of AMmis2 (Table 8) to approximate the maximum possible exposure, assuming 7% mass fraction in the composite with a maximum of 2% leaching. To account for multiplicity and variable size of restorations, a four-fold greater dilution was also included in the testing. After 6 h, cells were assessed for cell viability using a Luciferase Assay System (Promega Corp., Madison, Wis.). Negative controls were without the AMmis2 and/or cells. Mean+standard error was obtained from five independent replicates tested in quadruplicate.

CCL1 cells = assay: Cellular metabolic activity (CellTiter AQueous One Solution Reagent), CCL1 cells; format: cell-based; settings: two-fold serial dilutions, 24 h and 72 h
[2] = Sessile drop water contact angle (CA) on resin pellets; format: physicochemical
Procedure: (§1) Experimental resin (UPE) was formulated from the commercially available monomers urethane dimethacrylate (UDMA, 50.91% w/w), polyethylene glycol extended urethane dimethacrylate (PEG-U, 18.18% w/w), and ethyl 2-(hydroxymethyl)acrylate (EHMA, 30.91% w/w). A conventional visible light initiator system comprised of camphorquinone (0.2% w/w) and ethyl-4-N,N-dimethylamino benzoate (4EDMAB, 0.8% w/w) was utilized. […] Copolymer specimens (beams) were prepared by depositing UPE (UPE resin control) and AM-UPE resins into glass molds (2 mm×2 mm×25 mm) and photopolymerizing them with a dental curing light (Triad 2000, Dentsply, Charlotte, N.C., USA) for 2 minutes from two sides. Copolymer specimens (pellets) were prepared by depositing UPE and AM-UPE resins into a stainless-steel mold (1 mm×16 mm), sandwiched between two sheets of Mylar film and two glass slides and photopolymerized in the same manner as the beam samples. Degree of vinyl conversion (DVC) of UPE and AM-UPE resins was determined utilizing beam samples by collecting the near infra-red (NIR) spectra (Nexus 670, ThermoFisher, Madison, Wis., USA) before and 24 h after polymerization and calculating the reduction in absorption band at 6165 cm^−1 corresponding to the vinyl (C═C—H) overtone signal. By maintaining a constant specimen thickness, a need for an invariant internal standard was eliminated. The DVC was calculated as: […]
(§2) where Area(polymer) and Area(monomer) correspond to the areas under 6165 cm^−1 peaks after and before the polymerization, respectively. After DVC analysis, flexural strength (FS) and elastic modulus (E) of beam specimen were determined employing the Universal Testing Machine (Instron 5500R, Instron Corp., Canton, Mass., USA). The load was applied (at cross-head speed of 1 mm/min) to the center of a specimen positioned on a test device with supports 20 mm apart. The FS and E of the specimens (three replicates/experimental group) was calculated as instructed in the ISO4049:2009 document. Changes in hydrophilicity/hydrophobicity of UPE resins due to the introduction of AM monomers were assessed on pellet specimen by sessile drop contact angle (CA) measurements (drop shape analyzer DSA100, Krüss GmbH, Hamburg, Germany). Following the deposition of 4 μL water droplets on the resin pellets, the pellets were imaged after 1 min resting time with a camera at the points of intersection (three-phase contact points) between the drop contour and the projection of the surface (baseline). The CA water values were calculated employing the Krüss Advance software. At least four repetitive measurements were performed in each group. Analysis of variance (ANOVA) and Newman-Keuls multiple paired comparisons (at 95% confidence level) were used to analyze the experimental data as a function of resin composition and establish a statistical significance of differences between the experimental groups (WINKS 7.0.9, TexaSoft, Cedar Hills, Tex., USA).

[3] = test system: human gingival fibroblasts (HGF); assay: Direct contact cytotoxicity, LIVE/DEAD viability, HGF cells; format: cell-based
Procedure: (§3) Immortalized human gingival fibroblasts (HGF) were purchased from Applied Biological Materials, Inc. (Richmond, British Columbia, Canada). […] For experiments, cells were obtained from a subconfluent stock culture.
(§4) Direct contact cytotoxicity testing was conducted as previously described^7, 8. Briefly, cells were exposed to two-fold serial dilutions of AMadh series monomers or AMsil series monomers to approximate the maximum possible exposure, (Table 9). Table 9 illustrates biocompatibility testing using maximum possible monomer exposure (mmol/L), assuming 7% mass fraction in the restorative with a maximum of 2% leaching. To account for multiplicity and variable size of restorations, a two- and four-fold greater dilution was also included in the testing. After 24 and 72 h, cells were assessed for cell viability using the LIVE/DEAD® Viability/Cytotoxicity kit (Life Technologies, Corp., Grand Island, N.Y.). Cellular metabolic activity was subsequently assessed using the CellTiter® AQueous One Solution Reagent (Promega, Corp., Madison, Wis.). Negative controls were without the novel monomer and/or cells. Mean+standard error was obtained from five independent replicates tested in triplicate.

[4] = test system: human gingival fibroblasts (HGF); assay: Cellular metabolic activity (CellTiter AQueous One Solution Reagent), HGF cells; format: cell-based; settings: two-fold serial dilutions, 24 h and 72 h
Procedure: as §3, §4

[5] = Degree of vinyl conversion (DVC) by near infra-red spectra of copolymer beams; format: physicochemical
Procedure: as §1, §2

[6] = test system: mouse subcutaneous connective tissue fibroblasts (NCTC clone 929, CCL1); assay: Direct contact cytotoxicity, LIVE/DEAD viability, CCL1 cells; format: cell-based
[7] = two-fold serial dilutions, 24 h and 72 h

Row | Molecule | effect on HepG2-AD13 cells compared to negative control ([1]; concentrations ≤1.812 mmol/L) | relative luminescence units, fold greater than at all lower concentrations ([1]; concentrations ≥3.623 mmol/L) | effect of monomer concentration on CCL1 metabolic activity (CCL1 cells) | CA ([2]; 10 mass % monomer in UPE resin) | reduction of CA relative to UPE resin control ([2]; 10 mass % monomer in UPE resin) | effect on hydrophobic-hydrophilic properties of the copolymer ([2]; 10 mass percent in UPE resin) | effect on hydrophobic-hydrophilic properties of the copolymer ([2]; 20 mass percent in UPE resin) | effect of exposure time on HGF live cells, difference of means ([3]; 24 h vs 72 h, regardless of concentration) | effect of monomer concentration on HGF cell viability [3, 7] | reduction of number of live HGFs compared to the control group ([3]; ≥1.82 mmol/L) | effect on metabolic activity of HGF cells [4] | DVC compared to UPE resin control ([5]; 10 mass percent in UPE resin) | reduction of DVC relative to UPE resin control ([5]; 20 mass percent in UPE resin) | effect of monomer concentration on CCL1 cell viability [6, 7] | percentage of live CCL1 cells, fold lower compared to concentrations ≤0.91 mmol/L ([6]; ≥1.82 mmol/L, 72 h exposure) | live CCL1 cells compared to lower concentrations ([6]; ≥3.64 mmol/L, 24 h exposure)
1 | 2-(methacryloyloxy)-N,N,N-trimethylethan-1-aminium methacrylate [AMmis2] | did not exert a significant effect | at least 1.5 fold |  |  |  |  |  |  |  |  |  |  |  |  |  | 
2 | C=C(C)C(=O)OCC[N+](C)(C)CCCCCCCCCCC[Si](OC)(OC)OC.[Br-] [AMsil2, N-(2-(methacryloyloxy)ethyl)-N,N-dimethyl-11-(trimethoxysilyl)undecan-1-aminium bromide] |  |  | exerted an effect | 37.4±9.2 ° | 38% | a shift towards the lower CA values | maintained the hydrophobic-hydrophilic balance | ~23% | exhibited a concentration effect | more than 3 fold | exhibited an effect | did not change the copolymer DVC | 12.9% | exerted a main effect | 3 to 4 fold | lower

From patent publication US20200148803A1, “POLYMERIZABLE MULTIFUNCTIONAL ANTIMICROBIAL QUATERNARY AMMONIUM MONOMERS, METHODS OF SYNTHESIS, AND USES THEREOF” (ADA Foundation, priority 2018, published 2020)
